# Laboratory results reported in patent publication US5087631A, “Oxathi(SIV)azol-5-one compounds” (Glaxo Inc., priority 1990, dated 1992).
# Tested on: thoracic aortas
# Assay: Aorta Vasodilation Assay (relaxation of phenylephrine-contracted, endothelium-removed rat thoracic aorta rings)
# Design: species or system male Sprague-Dawley rats
# Settings: 20% O2, without methylene blue, endothelium-removed rings contracted with phenylephrine (1×10^-7 M), SOD 100 U/mL, cumulative addition, read-out: IC50 (relaxation induced by test compound, vasodilation assay)
# Method: The thoracic aortas removed from euthanized male Sprague-Dawley rats (200-300 g) are cleaned of adherent connective tissue and cut into rings 3 to 5 mm in length. Endothelium is removed by rolling the rings on moist filter paper. […] Tissues are mounted to isometric force displacement transducers and responses are recorded on a polygraph.
# All rings are gradually stretched (over a 120 min. period) to a basal resting tension of 2 g, which is maintained throughout the assay. During the basal tension adjustment period, the rings are exposed to KCl (40 mM) two to three times to verify tissue contractility. During this period, the effectiveness of endothelium removal is confirmed by the absence of the characteristic relaxation seen with acetylcholine (1×10^-6 M) in endothelium-intact (but not endothelium-removed) rings contracted with phenylephrine (1×10^-7 M).
# Phenylephrine (1×10^-7 M) is then added and the rings are allowed to obtain a stable contractile response after which time, SOD (100 U/mL) is added to the tissues. The test compound is then added in a cumulative fashion. After the stabilization of the response to the last concentration of the test compound, sodium nitroprusside (1×10^-4 M) is added to induce complete relaxation.
row,Compound,IC50
1,"COc1ccc(-c2[s+]noc2[O-])cc1 [4-methoxyphenyl, 4-(4-methoxyphenyl)-5H-1,3,2-oxathi(SIV)azol-5-one]",1.3 µM
2,"O=[N+]([O-])c1ccc(-c2[s+]noc2[O-])cc1 [4-nitrophenyl, 4-(4-nitrophenyl)-5H-1,3,2-oxathi(SIV)azol-5-one]",16 µM
3,"Cc1[s+]noc1[O-] [methyl, 4-Methyl-5H-1,3,2-oxathi(SIV)azol-5-one]",20 µM
4,"[O-]c1on[s+]c1-c1ccccc1 [phenyl, 4-phenyl-5H-1,3,2-oxathi(SIV)azol-5-one]",2.3 µM
